Results taken from ChEMBL document CHEMBL1137027, “Stereoselective synthesis and preliminary evaluation of new D-3-heteroarylcarbonylalanines as ligands of the NMDA receptor” (Bioorg Med Chem Lett, 2004).

Assays:
[1] = organism: Rattus norvegicus; test: Percent inhibition of delayed neural death at concentration of 500 uM induced by glutamate and glycine in neocortical neurons of Wistar rat fetus; assay type: functional
[2] = target: Glutamate NMDA receptor; test: Inhibition of [3H]MK-801 binding to NMDA receptor of adult Wistar rat brain cortical membranes; assay type: cell membranes, Membrane
[3] = organism: Rattus norvegicus; test: Percent inhibition of delayed neural death at concentration of 50 uM induced by glutamate and glycine in neocortical neurons of Wistar rat fetus; assay type: functional
[4] = target: Glutamate NMDA receptor; test: Inhibition of [3H]MK-801 binding to NMDA receptor of adult Wistar rat brain cortical membranes: Range 50-500; assay type: cell membranes, Membrane

| IC50 [4] | Structure (SMILES) | Inhibition [1] | IC50 [2] | Inhibition [3] |
| --- | --- | --- | --- | --- |
| – | N[C@H](CC(=O)c1ccccn1)C(=O)O | 60.3% | ~300 µM | 18.4% |
| < 500 µM | N[C@H](CC(=O)c1cccs1)C(=O)O | – | – | – |
